For three compounds, Km, activity and Activity results are on record in ChEMBL document CHEMBL2074377, “Transport of glutathione prostaglandin A conjugates by the multidrug resistance protein 1” (FEBS Lett, 1997).

Molecules are shown by their SMILES.

Type in all cases: functional, cell membranes, Membrane vesicle
The target of data set [1] is T1, Multidrug resistance-associated protein 1 (Homo sapiens, UniProt P33527). In words: TP_TRANSPORTER: uptake in membrane vesicles from MRP1-expressing DTY 168 yeast cells.
Data set [2] has as its target MRP1 (Multidrug resistance-associated protein 1) (Homo sapiens, UniProt P33527). Briefly: TP_TRANSPORTER: inhibition of EA-GS uptake (EA-GS: 0.2 uM, GA1: 10 uM, in the presence of GSH) in membrane vesicles from MRP1-expressing DTY 168 yeast cells. Set-up: scale not given: the % may be the effect or the level left. The conditions noted are these: probe EA-GS (0.2 uM), read-out: Activity.

Data set [3] has as its target T1, Multidrug resistance-associated protein 1. In words: TP_TRANSPORTER: inhibition of EA-GS uptake (EA-GS: 0.2 uM,PGA2: 10 uM, in the presence of GSH) in membrane vesicles from MRP1-expressing DTY 168 yeast cells. More on the design: scale not given: the % may be the effect or the level left. The conditions noted are these: dty 168, 10 µM.

T1 sequence (P33527 whole entry): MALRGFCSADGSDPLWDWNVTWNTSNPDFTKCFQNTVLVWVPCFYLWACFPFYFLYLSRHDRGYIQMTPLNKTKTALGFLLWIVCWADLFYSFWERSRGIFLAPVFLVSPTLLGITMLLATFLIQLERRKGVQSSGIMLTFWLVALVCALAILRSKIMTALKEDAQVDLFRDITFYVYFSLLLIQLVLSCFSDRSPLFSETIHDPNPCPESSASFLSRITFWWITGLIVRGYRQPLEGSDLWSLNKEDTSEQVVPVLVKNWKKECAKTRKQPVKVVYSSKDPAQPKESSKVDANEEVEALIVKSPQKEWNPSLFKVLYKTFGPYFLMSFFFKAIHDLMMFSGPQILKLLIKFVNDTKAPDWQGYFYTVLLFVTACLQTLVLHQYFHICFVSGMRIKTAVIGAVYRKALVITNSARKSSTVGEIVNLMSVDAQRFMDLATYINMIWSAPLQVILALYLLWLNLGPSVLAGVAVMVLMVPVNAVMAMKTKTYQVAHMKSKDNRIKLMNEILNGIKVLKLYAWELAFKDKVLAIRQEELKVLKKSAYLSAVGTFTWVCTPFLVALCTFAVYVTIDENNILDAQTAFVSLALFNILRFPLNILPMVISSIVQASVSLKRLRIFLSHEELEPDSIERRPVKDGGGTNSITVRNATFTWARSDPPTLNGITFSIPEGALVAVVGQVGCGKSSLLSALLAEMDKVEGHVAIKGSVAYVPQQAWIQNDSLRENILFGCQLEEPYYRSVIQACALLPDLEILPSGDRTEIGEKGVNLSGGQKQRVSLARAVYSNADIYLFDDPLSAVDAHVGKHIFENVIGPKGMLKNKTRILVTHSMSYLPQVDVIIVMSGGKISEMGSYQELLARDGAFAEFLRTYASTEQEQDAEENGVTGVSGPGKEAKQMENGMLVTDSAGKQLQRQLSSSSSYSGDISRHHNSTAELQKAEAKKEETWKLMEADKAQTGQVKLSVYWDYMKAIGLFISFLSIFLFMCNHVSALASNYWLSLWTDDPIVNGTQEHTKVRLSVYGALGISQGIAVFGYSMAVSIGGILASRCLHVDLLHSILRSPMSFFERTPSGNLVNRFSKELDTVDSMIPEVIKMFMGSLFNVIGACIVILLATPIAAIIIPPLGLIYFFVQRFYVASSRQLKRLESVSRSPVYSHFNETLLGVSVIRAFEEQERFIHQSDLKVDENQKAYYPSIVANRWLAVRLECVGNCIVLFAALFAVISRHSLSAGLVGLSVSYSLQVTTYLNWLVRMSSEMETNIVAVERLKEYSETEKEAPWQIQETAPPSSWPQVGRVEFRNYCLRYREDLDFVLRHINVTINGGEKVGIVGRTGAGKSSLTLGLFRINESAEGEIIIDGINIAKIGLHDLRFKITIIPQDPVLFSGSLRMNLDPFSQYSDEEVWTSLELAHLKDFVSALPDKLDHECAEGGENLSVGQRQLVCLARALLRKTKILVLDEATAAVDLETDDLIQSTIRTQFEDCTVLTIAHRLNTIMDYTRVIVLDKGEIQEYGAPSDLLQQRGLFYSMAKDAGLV
Sequence of MRP1 (Multidrug resistance-associated protein 1) (P33527 whole entry): as above

On to `CCCCC[C@H](O)/C=C/[C@H]1C(SC[C@@H](NC(=O)CC[C@@H](N)C(=O)O)C(=O)NCC(=O)O)CC(=O)[C@H]1C/C=C\CCCC(=O)O` (stereo partly drawn), for which the Km result in data set [1] is “substrate [Km=0.8-1uM]”. As for `CCCCC[C@H](O)/C=C/[C@H]1C=CC(=O)[C@@H]1CCCCCCC(=O)O` [PROSTAGLANDIN A1], the activity at 10 µM in data set [2] is 15%.

In the case of `CCCCC[C@H](O)/C=C/[C@H]1C=CC(=O)[C@@H]1C/C=C\CCCC(=O)O` [PROSTAGLANDIN A2], the Activity in data set [3] stood at 9%.
